Consider 13 substances from patent US20240417429A1, “COMPOSITIONS AND METHODS FOR SKIPPING EXON 45 IN DUCHENNE MUSCULAR DYSTROPHY” (Entrada Therapeutics, Inc., priority 2021, published 2024).

For the first assay, the system named is exon 45. The following applies: RMS cells, 5 μM AC with Endo-Porter, 24 hr incubation. The protocol: Cell Culture and Treatment: This study eruploys human rhabdomyosarcorna cells (RMS cells, ATCC CRL-2061. RMS cells were cultured in T75 flasks in RP 11640 (ATCC) medium with addition of 10% FBS (VWR) and Ix Penicillin-Streptormycin (VWR) under conditions of 37° C. and 5% CO2. 1×10^5 RMS cells were seeded per well in RPMII 640 full medium in 24-well plates for overnight. The next day the culture medium was replaced with 1 mL. fresh medium 5 μM or 10 μM of an AC from Table 8 was added to the cell culture and swirled to mix. Subsequently, 6 μL of Endo-Porter (Gene-tools) was added to the cell culture per well (1 mL of culture medium) and immediately swirled to mix. […] The cells were allowed to stand at room temperature for 5 minutes for cell lysis and pipetted a few times for a thorough mix. The lysates were collected in the Sample Tube RB (QIAGEN).
RNA Extraction: The RNA was extracted using QIAcube following the protocol from the manufacture. The concentration of the total RNA was determined using a NanoDrop 8000 (Thermo Fisher Scientific).
Nested PCR: Nested PCR was performed with 200 ng of the extracted total RNA and QIAGEN OneStep RT-PCR Kits for the primary amplification. A reaction solution of 50 μL was prepared following manufacture's protocol with DMD specific primers
The RT-PCR program used is as follows:
The secondary amplification PCR reaction was prepared using OneTaq® Hot Start 2X Master Mix following manufacture's protocol
Gel Electrophoresis Analysis for Exon Skipping Efficiency: 4 μL of the PCR product above was analyzed by 2% E-gel (Invitrogen′™) and imaged with E-Gel™ Power Snap Electrophoresis System (Thermo Fisher Scientific). The intensities of the skipped and full-length bands were analyzed. The polynucleotide level “A” of the band with exon 45 skipping and the polynucleotide level “B” of the band without exon 45 skipping were measured using ImageJ. 181 Based on these measurement values of “A” and “B”, the skipping efficiency was determined by the following equation: Skipping efficiency (%)=A/(A+B)'100.
For “5′-GCCCAATGCCATCCTGGAGTTCC-3′ [D45-23mer-n1]”, the “Exon Skipping Efficacy (%) with 5 μM AC” value is given as 39.6%.

Turning to “5′-ATGCCATCCTGGAGTTCCTGTA-3′ [D45-22mer-n5]”, the “Exon Skipping Efficacy (%) with 5 μM AC” value came out at 36.8%.

As for “5′-CCCAATGCCATCCTGGAGTTCC-3′ [D45-22mer-n1]”, the “Exon Skipping Efficacy (%) with 5 μM AC” value is on record as 45.1%.

In the case of “5′-CCGCTGCCCAATGCCATCCTGGAG-3′ [D45-24mer-3]”, the “Exon Skipping Efficacy (%) with 5 μM AC” value is listed as 37.2%.

As to “5′-CCCAATGCCATCCTGGAGTTCCT-3′ [D45-23mer-n2]”, the “Exon Skipping Efficacy (%) with 5 μM AC” value turned out to be 46.4%.

For “5′-CCGCTGCCCAATGCCATCCTG-3′ [D45-21mer-6]”, the “Exon Skipping Efficacy (%) with 5 μM AC” value is reported as 45.9%.

For “5′-TGCCCAATGCCATCCTGGAGTTCCT-3′ [D45-25mer-n2]”, the “Exon Skipping Efficacy (%) with 5 μM AC” value is reported as 44.0%.

As to “5′-CCCAATGCCATCCTGGAGTTCCTGT-3′ [D45-25mer-n4]”, the “Exon Skipping Efficacy (%) with 5 μM AC” value came to 37.6%.

Take “5′-CCCAATGCCATCCTGGAGTTCCTG-3′ [D45-24mer-n3]”: the “Exon Skipping Efficacy (%) with 5 μM AC” value was found to be 44.2%.

Consider “5′-AATGCCATCCTGGAGTTCCTG-3′ [D45-21mer-n3]”, for which the “Exon Skipping Efficacy (%) with 5 μM AC” value is on record as 41.8%.

Regarding “5′-CAATGCCATCCTGGAGTTCCTGT-3′ [D45-23mer-n4]”, the “Exon Skipping Efficacy (%) with 5 μM AC” value is 35.3%.

Take “5′-ATGCCATCCTGGAGTTCCTGT-3′ [D45-21mer-n4]”: the “Exon Skipping Efficacy (%) with 5 μM AC” value was 42.6%.

The same assay, now with this note: RMS cells, 10 μM AC with Endo-Porter, 24 hr incubation.
Turning to “5′-GCCCAATGCCATCCTGGAGTTCC-3′ [D45-23mer-n1]”, the “Exon Skipping Efficacy (%) with 10 μM AC” value came out at 54.4%.

On to “5′-ATGCCATCCTGGAGTTCCTGTA-3′ [D45-22mer-n5]”, for which the “Exon Skipping Efficacy (%) with 10 μM AC” value worked out at 50.9%.

In the case of “5′-CCCAATGCCATCCTGGAGTTCC-3′ [D45-22mer-n1]”, the “Exon Skipping Efficacy (%) with 10 μM AC” value amounted to 62.3%.

As to “5′-CCGCTGCCCAATGCCATCCTGGAG-3′ [D45-24mer-3]”, the “Exon Skipping Efficacy (%) with 10 μM AC” value is 40.8%.

As to “5′-CCCAATGCCATCCTGGAGTTCCT-3′ [D45-23mer-n2]”, the “Exon Skipping Efficacy (%) with 10 μM AC” value was found to be 58.2%.

With “5′-CCGCTGCCCAATGCCATCCTG-3′ [D45-21mer-6]”, the “Exon Skipping Efficacy (%) with 10 μM AC” value is 59.5%.

Regarding “5′-TGCCCAATGCCATCCTGGAGTTCCT-3′ [D45-25mer-n2]”, the “Exon Skipping Efficacy (%) with 10 μM AC” value is 48.8%.

Take “5′-CCCAATGCCATCCTGGAGTTCCTGT-3′ [D45-25mer-n4]”: the “Exon Skipping Efficacy (%) with 10 μM AC” value stood at 42.6%.

“5′-CCCAATGCCATCCTGGAGTTCCTG-3′ [D45-24mer-n3]”: the “Exon Skipping Efficacy (%) with 10 μM AC” value is listed as 52.3%.

In the case of “5′-AATGCCATCCTGGAGTTCCTG-3′ [D45-21mer-n3]”, the “Exon Skipping Efficacy (%) with 10 μM AC” value stood at 52.7%.

For the substance “5′-CAATGCCATCCTGGAGTTCCTGT-3′ [D45-23mer-n4]”, the “Exon Skipping Efficacy (%) with 10 μM AC” value was found to be 45.3%.

Regarding “5′-ATGCCATCCTGGAGTTCCTGT-3′ [D45-21mer-n4]”, the “Exon Skipping Efficacy (%) with 10 μM AC” value is 52.0%.

Another assay concerns D2/MDX mice. The following applies: Q2W IV; 4, 8 and 12 weeks post-treatment. The protocol:
Serum CK was determined at 4 time points: pre-dose, and at 4, 8 and 12 weeks.
As for “5′-GGCCAAACCTCGGCTTACCTGAAAT-3′ [PMO-MDX23]”, the “Serum CK” value was “no significant decrease”.

The test system of the next assay is D2/MDX mice. The following applies: Q2W IV; at 12 weeks vs pre-dose. The method, then: Grip strength was measured at pre-dose (FIG. 11A) and at 12 weeks (FIG. 11B).
As for “5′-GGCCAAACCTCGGCTTACCTGAAAT-3′ [PMO-MDX23]”, the Grip strength entry is recorded as “no significant improvement”.

The subject of another assay is D2/MDX mice. The following applies: PMO only, Q2W IV; 2 to 12 weeks.
As to “5′-GGCCAAACCTCGGCTTACCTGAAAT-3′ [PMO-MDX23]”, the “Wire hang time, PMO treatment alone” value is on record as “following the same trends as the vehicle D2.mdx group”.
